Experimental data: patent US12479816B2, “20-HETE formation inhibitors” (UNIVERSITY OF PITTSBURGH—OF THE COMMONWEALTH SYSTEM OF …, priority 2019, dated 2025)

Key:
Type in all cases: biochemical, human
[1] = tested on: 20-HETE formation (CYP4) in HLM; assay: Inhibition of 20-HETE formation at 250 or 500 nM in HLM microsomal incubations; details: HLM 300 μg/ml, AA 100 μM, 20 min; for HLM % inh. @ 500 nM: 500 nM compound; for HLM % inh. @ 250 nM: 250 nM compound
In short: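 20-HETE formation, measured by UPLC-MS/MS after ether extraction, is reported as percentage of vehicle control, triplicates. Incubations: 300 μg/ml microsomal protein or 25 pmol/mL rCYP4F2, AA 100 μM, NADPH 1 mM, 20 min at 37° C.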

[2] = tested on: 20-HETE formation (CYP4) in HLM; assay: IC50 determination, 20-HETE formation in HLM; details: HLM 300 μg/ml, AA 100 μM, 12 concentrations
In short: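 Human or rat liver microsomes (300 μg/ml) with arachidonic acid 100 μM, NADPH 1 mM, compound at 12 concentrations (0.1 nM-50 μM) in phosphate/MgCl2 buffer, 20 min at 37 °C. 20-HETE quantified by UPLC-MS/MS against d6 internal standard, normalised to vehicle; IC50 by nonlinear regression.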

[3] = tested on: formation of EETs and DiHETs (epoxygenase activity) in HLM; assay: Selectivity: inhibition of EETs and DiHETs formation (epoxygenase activity) in HLM; details: for IC50: sum of EETs and DiHETs
Experimental: Selectivity of compounds for inhibition of 20-HETE formation vs inhibition of formation of 8,9-, 11,12-, 14,15-EET and 5,6-, 8,9-, 11,12-, 14,15-DiHETs was assessed via the simultaneous monitor of formation of 20-HETE and those metabolites under the UPLC-MS/MS assay conditions described above using HLM incubations and the same 12 test compound concentrations (0.1 nM-[…]) used for the IC50 determination experiments. At each of the 12 concentrations, the selectivity of 20-HETE inhibition over the other metabolites was compared. Epoxygenase activity was assessed by the sum of EETs and DiHETEs as percentage of control.

| HLM % inh. @ 500 nM [1] | IC50 [2] | EETs Inhibition, % @ 50,000 ([3]; at 50,000 (nM per column head)) | IC50 [3] | EETs Inhibition, % @ 10 μM ([3]; at 10 μM) | HLM % inh. @ 250 nM [1] | SMILES |
| --- | --- | --- | --- | --- | --- | --- |
| 73.10% | 0.07 µM | 3.1%@ 50,000 | – | – | – | COc1ccc(C2CCN(c3cn[nH]c3)CC2)cc1 [Compound 20, 4-(4-Methoxyphenyl)-1-(1H-pyrazol-4-yl)piperidine] |
| 77.30% | 0.05 µM | – | > 25000 nM | – | – | c1ccc(CC2CCN(c3cn[nH]c3)CC2)cc1 [Compound 3, 4-Benzyl-1-(1H-pyrazol-4-yl)piperidine] |
| 75.00% | 0.1 µM | – | – | – | – | CC(=O)N(C)c1ccc(C2CCN(c3cn[nH]c3)CC2)cc1 [Compound 28, N-(4-(1-(1H-Pyrazol-4-yl)piperidin-4-yl)phenyl)-N-methylacetamide] |
| 91.6% | 0.0542 µM | – | > 50 nM | – | – | O=C1CCCN1Cc1ccc(C2CCN(c3cn[nH]c3)CC2)cc1 [Compound 83, 1-(4-(1-(1H-Pyrazol-4-yl)piperidin-4-yl)benzyl)pyrrolidin-2-one] |
| 72.30% | 0.14 µM | – | > 25000 nM | – | – | COc1ccc(C2CCN(c3ccn[nH]3)CC2)cc1 [Compound 19, 4-(4-Methoxyphenyl)-1-(1H-pyrazol-5-yl)piperidine] |
| 93.03% | 0.017 µM | – | – | 50% @ 10 μM | – | Clc1ccc(CC2CCN(c3cn[nH]c3)CC2)cc1 [Compound 93, 4-(4-Chlorobenzyl)-1-(1H-pyrazol-4-yl)piperidine] |
| 76.1% | 0.054 µM | – | > 50 nM | – | – | O=C1CCCN1c1ccc(C2CCN(c3cn[nH]c3)CC2)cc1 [Compound 100, 1-(4-(1-(1H-Pyrazol-4-yl)piperidin-4-yl)phenyl)pyrrolidin-2-one] |
| 47.40% | 0.44 µM | – | > 50000 nM | – | 31.60% | c1ccc(C2CCN(c3ccn[nH]3)CC2)cc1 [Compound 54, 4-Phenyl-1-(1H-pyrazol-5-yl)piperidine] |
| 80.00% | 0.11 µM | – | – | – | – | Cc1cccc(C2CCN(c3cn[nH]c3)CC2)c1 [Compound 34, 1-(1H-Pyrazol-4-yl)-4-(m-tolyl)piperidine] |
| 78.80% | 0.19 µM | – | > 10000 nM | – | 64.29% | c1ccc(C2CCN(c3cn[nH]c3)CC2)cc1 [Compound 1, 4-Phenyl-1-(1H-pyrazol-4-yl)piperidine] |
